Assay results published in patent publication US20260116920A1, “HUMAN TRANSFERRIN RECEPTOR BINDING PEPTIDE” (PEPTIDREAM INC., priority 2021, published 2026).
Starred links: 1 amine or outer side, 2 acyl side, 3 side chain; linkers in the order of their positions; H or OH if unused. Positions of bridges follow the written chain, without caps; N, C: chain ends. Non-standard residues stand in square brackets, D forms with d. Residues, ends and D or L forms follow the SMILES beside them. Groups on a side chain read outwards from the residue. *: point of attachment. Trp(1-CH2COOH) = N[C@@H](Cc1cn(CC(=O)O)c2ccccc12)C(=O)O; Meglumine = CN(C[C@H](O)[C@@H](O)[C@H](O)[C@H](O)CO)*; Phe(3-COOH) = N[C@@H](Cc1cccc(C(=O)O)c1)C(=O)O; NMePhe(3-Cl) = CN[C@@H](Cc1cccc(Cl)c1)C(=O)O; 3Pal(6-NH2) = Nc1ccc(C[C@H](N)C(=O)O)cn1; Lys(N3) = [N-]=[N+]=NCCCC[C@H](N)C(=O)O; NMe3Pal = CN[C@@H](Cc1cccnc1)C(=O)O; NMe4Pal = CN[C@@H](Cc1ccncc1)C(=O)O; NMeY = CN[C@@H](Cc1ccc(O)cc1)C(=O)O; 3Pal = N[C@@H](Cc1cccnc1)C(=O)O; 4Pal = N[C@@H](Cc1ccncc1)C(=O)O; PEG4 = NCCOCCOCCOCCOCCC(=O)O; Carboxymethyl = O=C(O)C*; CO = O=C([*:1])[*:2]

Molecular target: T1, human transferrin receptor (hTfR) (Homo sapiens, UniProt P02786)
T1 construct: made in house
T1 sequence (P02786 89-760 limits assumed): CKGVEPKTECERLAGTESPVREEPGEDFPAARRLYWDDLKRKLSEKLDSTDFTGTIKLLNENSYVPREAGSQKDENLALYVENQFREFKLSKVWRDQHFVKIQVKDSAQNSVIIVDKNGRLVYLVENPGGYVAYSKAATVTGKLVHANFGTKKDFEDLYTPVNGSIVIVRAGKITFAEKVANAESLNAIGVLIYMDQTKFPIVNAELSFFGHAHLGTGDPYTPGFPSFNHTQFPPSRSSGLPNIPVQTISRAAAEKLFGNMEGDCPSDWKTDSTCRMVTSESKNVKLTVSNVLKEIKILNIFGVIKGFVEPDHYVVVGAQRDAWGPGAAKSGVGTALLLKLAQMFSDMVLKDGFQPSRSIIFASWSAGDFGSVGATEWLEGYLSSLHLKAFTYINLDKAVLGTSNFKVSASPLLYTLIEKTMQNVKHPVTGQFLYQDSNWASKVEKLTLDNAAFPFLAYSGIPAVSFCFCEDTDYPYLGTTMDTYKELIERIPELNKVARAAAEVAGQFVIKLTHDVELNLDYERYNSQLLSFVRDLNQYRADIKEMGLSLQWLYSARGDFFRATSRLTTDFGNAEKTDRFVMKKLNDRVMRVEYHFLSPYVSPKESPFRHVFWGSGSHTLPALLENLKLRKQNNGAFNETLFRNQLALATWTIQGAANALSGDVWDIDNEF
Assay: Evaluation of molecular interaction between transferrin receptor (hTfR) and peptide using surface plasmon resonance (SPR)
Format: binding
Details: surface plasmon resonance, binding to hTfR; KD class symbol; read-out: SPR (KD value)
Outline: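 Recombinant human TfR dimer (0.5 μM) was captured on a Ni-charged NTA chip and amine-coupled with EDC/NHS, then ethanolamine-capped. Peptides at 5–100 nM in HEPES pH 8.0 buffer with 150 mM NaCl, 0.05% Tween 20, 0.1% BSA and 1.0% DMSO were run by single-cycle kinetics; KD came from least-squares curve fitting.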

Kd	Structure (SMILES)
1 to 100 nM	CC[C@H](C)[C@@H]1NC(=O)[C@H](Cc2cccnc2)NC(=O)[C@H](Cc2ccc(O)cc2)NC(=O)[C@H](CC(N)=O)NC(=O)[C@H](Cc2c[nH]c3ccccc23)NC(=O)[C@H](C(C)C)NC(=O)[C@H](Cc2cccc(Cl)c2)N(C)C(=O)[C@H](C(C)C)NC(=O)[C@H](C)NC(=O)CSC[C@@H](C(=O)NCCOCCOCCOCCOCCC(N)=O)NC(=O)[C@H](Cc2ccc(O)cc2)N(C)C(=O)[C@H](Cc2ccccc2)NC(=O)[C@H](CCCNC(=N)N)NC(=O)[C@H](CCCNC(=N)N)NC(=O)[C@H]([C@@H](C)CC)NC1=O [compound 60] ({CH2CO}-AV[NMePhe(3-Cl)]VWNY[3Pal]IIRRF[NMeY]C[PEG4]-NH2; thioether N-15)
1 to 100 nM	CC[C@H](C)[C@@H]1NC(=O)[C@H](Cc2ccncc2)NC(=O)[C@H](Cc2ccc(O)cc2)NC(=O)[C@H](CC(N)=O)NC(=O)[C@H](Cc2c[nH]c3ccccc23)NC(=O)[C@H](C(C)C)NC(=O)[C@H](Cc2cccc(Cl)c2)N(C)C(=O)[C@H](C(C)C)NC(=O)[C@H](C)NC(=O)CSC[C@@H](C(=O)NCCOCCOCCOCCOCCC(N)=O)NC(=O)[C@H](Cc2ccc(O)cc2)N(C)C(=O)[C@H](Cc2ccccc2)NC(=O)[C@H](CCCNC(=N)N)NC(=O)[C@H](CCCNC(=N)N)NC(=O)[C@H]([C@@H](C)CC)NC1=O [compound 61] ({CH2CO}-AV[NMePhe(3-Cl)]VWNY[4Pal]IIRRF[NMeY]C[PEG4]-NH2; thioether N-15)
1 to 100 nM	CC[C@H](C)[C@@H]1NC(=O)[C@H](Cc2ccncc2)NC(=O)[C@H](Cc2ccc(N)nc2)NC(=O)[C@H](CC(N)=O)NC(=O)[C@H](Cc2c[nH]c3ccccc23)NC(=O)[C@H](C(C)C)NC(=O)[C@H](Cc2cccc(Cl)c2)N(C)C(=O)[C@H](C(C)C)NC(=O)[C@H](C)NC(=O)CSC[C@@H](C(=O)NCCOCCOCCOCCOCCC(N)=O)NC(=O)[C@H](Cc2ccc(O)cc2)N(C)C(=O)[C@H](Cc2ccncc2)NC(=O)[C@H](CCCNC(=N)N)NC(=O)[C@H](CCCNC(=N)N)NC(=O)[C@H]([C@@H](C)CC)NC1=O [compound 62] ({CH2CO}-AV[NMePhe(3-Cl)]VWN[3Pal(6-NH2)][4Pal]IIRR[4Pal][NMeY]C[PEG4]-NH2; thioether N-15)
1 to 100 nM	CC[C@H](C)[C@@H]1NC(=O)[C@H](Cc2ccc(OC)cc2)NC(=O)[C@H](Cc2ccc(N)nc2)NC(=O)[C@H](CC(N)=O)NC(=O)[C@H](Cc2c[nH]c3ccccc23)NC(=O)[C@H](C(C)C)NC(=O)[C@H](Cc2cccnc2)N(C)C(=O)[C@H](C(C)C)NC(=O)[C@H](C)NC(=O)CSC[C@@H](C(=O)NCCOCCOCCOCCOCCC(N)=O)NC(=O)[C@H](Cc2ccc(O)cc2)N(C)C(=O)[C@H](Cc2ccccc2)NC(=O)[C@H](CCCNC(=N)N)NC(=O)[C@H](CCCNC(=N)N)NC(=O)[C@H]([C@@H](C)CC)NC1=O [compound 63] ({CH2CO}-AV[NMe3Pal]VWN[3Pal(6-NH2)]Y(Me)IIRRF[NMeY]C[PEG4]-NH2; thioether N-15)
1 to 100 nM	CC[C@H](C)[C@@H]1NC(=O)[C@H](Cc2ccc(OC)cc2)NC(=O)[C@H](Cc2ccc(N)nc2)NC(=O)[C@H](CC(N)=O)NC(=O)[C@H](Cc2c[nH]c3ccccc23)NC(=O)[C@H](C(C)C)NC(=O)[C@H](Cc2ccncc2)N(C)C(=O)[C@H](C(C)C)NC(=O)[C@H](C)NC(=O)CSC[C@@H](C(=O)NCCOCCOCCOCCOCCC(N)=O)NC(=O)[C@H](Cc2ccc(O)cc2)N(C)C(=O)[C@H](Cc2ccccc2)NC(=O)[C@H](CCCNC(=N)N)NC(=O)[C@H](CCCNC(=N)N)NC(=O)[C@H]([C@@H](C)CC)NC1=O [compound 64] ({CH2CO}-AV[NMe4Pal]VWN[3Pal(6-NH2)]Y(Me)IIRRF[NMeY]C[PEG4]-NH2; thioether N-15)
1 to 100 nM	CC[C@H](C)[C@@H]1NC(=O)[C@H](Cc2ccc(OC)cc2)NC(=O)[C@H](Cc2ccc(O)cc2)NC(=O)[C@H](CC(N)=O)NC(=O)[C@H](Cc2c[nH]c3ncccc23)NC(=O)[C@H](C(C)C)NC(=O)[C@H](Cc2cccc(Cl)c2)N(C)C(=O)[C@H](C(C)C)NC(=O)[C@H](C)NC(=O)CSC[C@@H](C(=O)NCCOCCOCCOCCOCCC(N)=O)NC(=O)[C@H](Cc2ccc(O)cc2)N(C)C(=O)[C@H](Cc2ccncc2)NC(=O)[C@H](CCCNC(=N)N)NC(=O)[C@H](CCCNC(=N)N)NC(=O)[C@H]([C@@H](C)CC)NC1=O [compound 65]
1 to 100 nM	CC[C@H](C)[C@@H]1NC(=O)[C@H](Cc2ccc(OC)cc2)NC(=O)[C@H](Cc2ccc(O)cc2)NC(=O)[C@H](CC(N)=O)NC(=O)[C@H](Cc2c[nH]c3ccccc23)NC(=O)[C@H](C(C)C)NC(=O)[C@H](Cc2cccc(Cl)c2)N(C)C(=O)[C@H](C(C)C)NC(=O)[C@H](C)NC(=O)CSC[C@@H](C(=O)NCCOCCOCCOCCOCCC(N)=O)NC(=O)[C@H](Cc2cccnc2)N(C)C(=O)[C@H](Cc2ccncc2)NC(=O)[C@H](CCCNC(=N)N)NC(=O)[C@H](CCCNC(=N)N)NC(=O)[C@H]([C@@H](C)CC)NC1=O [compound 66]
1 to 100 nM	CC[C@H](C)[C@@H]1NC(=O)[C@H](Cc2cccnc2)NC(=O)[C@H](Cc2ccc(O)cc2)NC(=O)[C@H](CC(N)=O)NC(=O)[C@H](Cc2c[nH]c3ccccc23)NC(=O)[C@H](C(C)C)NC(=O)[C@H](Cc2cccc(Cl)c2)N(C)C(=O)[C@H](C(C)C)NC(=O)[C@H](C)NC(=O)CSC[C@@H](C(=O)NCCOCCOCCOCCOCCC(N)=O)NC(=O)[C@H](Cc2ccc(O)cc2)N(C)C(=O)[C@H](Cc2ccncc2)NC(=O)[C@H](CCC(N)=O)NC(=O)[C@H](CCC(N)=O)NC(=O)[C@H]([C@@H](C)CC)NC1=O [compound 67] ({CH2CO}-AV[NMePhe(3-Cl)]VWNY[3Pal]IIQQ[4Pal][NMeY]C[PEG4]-NH2; thioether N-15)
1 to 100 nM	CC[C@H](C)[C@@H]1NC(=O)[C@H](Cc2cccnc2)NC(=O)[C@H](Cc2ccc(O)cc2)NC(=O)[C@H](CC(N)=O)NC(=O)[C@H](Cc2c[nH]c3ccccc23)NC(=O)[C@H](C(C)C)NC(=O)[C@H](Cc2cccc(Cl)c2)N(C)C(=O)[C@H](C(C)C)NC(=O)[C@H](C)NC(=O)CSC[C@@H](C(=O)NCC(=O)N[C@H](CCCCNC(=O)N(C)C[C@H](O)[C@@H](O)[C@H](O)[C@H](O)CO)C(=O)N[C@H](CCCCNC(=O)N(C)C[C@H](O)[C@@H](O)[C@H](O)[C@H](O)CO)C(=O)N[C@H](CCCCNC(=O)N(C)C[C@H](O)[C@@H](O)[C@H](O)[C@H](O)CO)C(=O)N[C@H](CO)C(=O)N[C@H](CO)C(=O)N[C@@H](CCCCN=[N+]=[N-])C(N)=O)NC(=O)[C@H](Cc2ccc(O)cc2)N(C)C(=O)[C@H](Cc2ccncc2)NC(=O)[C@H](CCCNC(=N)N)NC(=O)[C@H](CCCNC(=N)N)NC(=O)[C@H]([C@@H](C)CC)NC1=O [compound 68] ({CH2CO}-AV[NMePhe(3-Cl)]VWNY[3Pal]IIRR[4Pal][NMeY]CG[dK]([CO-Meglumine])[dK]([CO-Meglumine])[dK]([CO-Meglumine])[dS][dS][Lys(N3)]-NH2; thioether N-15)
1 to 100 nM	CC[C@H](C)[C@@H]1NC(=O)[C@H](Cc2cccnc2)NC(=O)[C@H](Cc2ccc(O)cc2)NC(=O)[C@H](CC(N)=O)NC(=O)[C@H](Cc2c[nH]c3ccccc23)NC(=O)[C@H](C(C)C)NC(=O)[C@H](Cc2cccc(Cl)c2)N(C)C(=O)[C@H](C(C)C)NC(=O)[C@H](C)NC(=O)CSC[C@@H](C(=O)NCC(=O)N[C@H](CCC(=O)O)C(=O)N[C@H](CCC(=O)O)C(=O)N[C@H](CCC(=O)O)C(=O)N[C@H](CO)C(=O)N[C@H](CO)C(=O)N[C@@H](CCCCN=[N+]=[N-])C(N)=O)NC(=O)[C@H](Cc2ccc(O)cc2)N(C)C(=O)[C@H](Cc2ccncc2)NC(=O)[C@H](CCCNC(=N)N)NC(=O)[C@H](CCCNC(=N)N)NC(=O)[C@H]([C@@H](C)CC)NC1=O [compound 69]
1 to 100 nM	CC[C@H](C)[C@@H]1NC(=O)[C@H](Cc2ccc(OC)cc2)NC(=O)[C@H](Cc2ccc(O)cc2)NC(=O)[C@H](CC(N)=O)NC(=O)[C@H](Cc2cn(CC(=O)O)c3ccccc23)NC(=O)[C@H](C(C)C)NC(=O)[C@H](Cc2cccc(Cl)c2)N(C)C(=O)[C@H](C(C)C)NC(=O)[C@H](C)NC(=O)CSC[C@@H](C(=O)NCCOCCOCCOCCOCCC(N)=O)NC(=O)[C@H](Cc2ccc(O)cc2)N(C)C(=O)[C@H](Cc2ccccc2)NC(=O)[C@H](CCC(=O)NCCOCCOCCOCCOCCOCCOCCOCCOC)NC(=O)[C@H](CCCNC(=N)N)NC(=O)[C@H]([C@@H](C)CC)NC1=O [compound 70]
1 to 100 nM	CC[C@H](C)[C@@H]1NC(=O)[C@H](Cc2ccc(OCC(=O)O)cc2)NC(=O)[C@H](Cc2ccc(N)nc2)NC(=O)[C@H](CC(N)=O)NC(=O)[C@H](Cc2cn(CC(=O)O)c3ccccc23)NC(=O)[C@H](C(C)C)NC(=O)[C@H](Cc2cccc(Cl)c2)N(C)C(=O)[C@H](C(C)C)NC(=O)[C@H](C)NC(=O)CSC[C@@H](C(=O)NCCOCCOCCOCCOCCC(N)=O)NC(=O)[C@H](Cc2ccc(O)cc2)N(C)C(=O)[C@H](Cc2ccccc2)NC(=O)[C@H](CCCNC(=N)N)NC(=O)[C@H](CCCNC(=N)N)NC(=O)[C@H]([C@@H](C)CC)NC1=O [compound 71] ({CH2CO}-AV[NMePhe(3-Cl)]V[Trp(1-CH2COOH)]N[3Pal(6-NH2)]Y(Carboxymethyl)IIRRF[NMeY]C[PEG4]-NH2; thioether N-15)
1 to 100 nM	CC[C@H](C)[C@@H]1NC(=O)[C@H](Cc2ccc(OC)cc2)NC(=O)[C@H](Cc2ccc(N)nc2)NC(=O)[C@H](CC(N)=O)NC(=O)[C@H](Cc2cn(CC(=O)O)c3ccccc23)NC(=O)[C@H](C(C)C)NC(=O)[C@H](Cc2cccc(Cl)c2)N(C)C(=O)[C@H](C(C)C)NC(=O)[C@H](C)NC(=O)CSC[C@@H](C(=O)NCCOCCOCCOCCOCCC(N)=O)NC(=O)[C@H](Cc2ccc(O)cc2)N(C)C(=O)[C@H](Cc2cccc(C(=O)O)c2)NC(=O)[C@H](CCCNC(=N)N)NC(=O)[C@H](CCCNC(=N)N)NC(=O)[C@H]([C@@H](C)CC)NC1=O [compound 72] ({CH2CO}-AV[NMePhe(3-Cl)]V[Trp(1-CH2COOH)]N[3Pal(6-NH2)]Y(Me)IIRR[Phe(3-COOH)][NMeY]C[PEG4]-NH2; thioether N-15)
